Values of other authors, collected in patent US20040208853A1, “Method and device for sanitation using bacteriophages” (priority 2000, published 2004).

Test system: bacterial counts on fresh-cut fruits
Conditions: most effective chemical sanitizer

SMILES: OO [hydrogen peroxide]
- maximum reduction rate in bacterial counts on fresh-cut fruits: 1.3 logs
